We go through 17 compounds from ChEMBL document CHEMBL1124960, “Histamine H3 ligands: just pharmacological tools or potential therapeutic agents?” (J Med Chem, 1990).

The target of assay [1] is T1, Histamine H3 receptor (Rattus norvegicus, UniProt Q9QYN8). Description: Evaluated for antagonistic activity at histamine H3 receptor in rat cerebral cortex and is represented as Ki. It counts as functional, tissue-based.
For assay [2], the target named is Histamine H1 receptor (Cavia porcellus) (UniProt P31389). Description: Evaluated for agonistic activity at histamine H1 receptor of guinea pig ileum and is represented as potency. It counts as functional, tissue-based.
Sequence of Histamine H1 receptor (Cavia porcellus) (P31389 whole entry): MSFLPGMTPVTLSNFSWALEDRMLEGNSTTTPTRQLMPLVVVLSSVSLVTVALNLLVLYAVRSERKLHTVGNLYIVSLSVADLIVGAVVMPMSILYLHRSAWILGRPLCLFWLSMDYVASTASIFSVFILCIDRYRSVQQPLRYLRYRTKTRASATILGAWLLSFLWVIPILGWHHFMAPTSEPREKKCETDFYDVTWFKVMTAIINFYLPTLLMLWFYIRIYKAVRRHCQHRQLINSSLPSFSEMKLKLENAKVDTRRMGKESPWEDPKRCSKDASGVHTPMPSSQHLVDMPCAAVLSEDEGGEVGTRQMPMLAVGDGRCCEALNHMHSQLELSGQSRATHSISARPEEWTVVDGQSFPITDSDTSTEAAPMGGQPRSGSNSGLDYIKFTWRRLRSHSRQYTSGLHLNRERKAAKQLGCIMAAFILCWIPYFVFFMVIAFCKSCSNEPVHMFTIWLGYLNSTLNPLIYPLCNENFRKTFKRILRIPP
The target in assay [3] is Histamine H2 receptor (Cavia porcellus) (UniProt P47747). Description: Evaluated for agonistic activity at histamine H2 receptor of guinea pig atrium and is represented as potency. It counts as functional, tissue-based. Particulars: Cardiac atrium.
Sequence of Histamine H2 receptor (Cavia porcellus) (P47747 whole entry): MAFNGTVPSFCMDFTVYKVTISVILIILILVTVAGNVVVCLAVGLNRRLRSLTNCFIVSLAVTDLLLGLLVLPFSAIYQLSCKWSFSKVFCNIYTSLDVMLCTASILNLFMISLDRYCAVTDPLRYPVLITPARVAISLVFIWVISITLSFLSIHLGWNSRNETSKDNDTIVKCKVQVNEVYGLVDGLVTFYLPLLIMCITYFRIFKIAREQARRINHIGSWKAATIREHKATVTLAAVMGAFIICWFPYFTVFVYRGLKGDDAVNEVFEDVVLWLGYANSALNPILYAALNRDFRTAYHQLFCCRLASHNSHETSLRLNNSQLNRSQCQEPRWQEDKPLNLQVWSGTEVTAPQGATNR
For assay [4] the target is unchanged. Put plainly: Evaluated for agonistic activity at histamine H2 receptor of guinea pig atrium and is represented as intrinsic activity. It counts as functional, tissue-based. Particulars: Cardiac atrium.
The target of assay [5] is Histamine H1 receptor (Cavia porcellus) (UniProt P31389). Put plainly: Evaluated for agonistic activity at histamine H1 receptor of guinea pig ileum and is represented as intrinsic activity. It counts as functional, tissue-based.
The species named for assay [6] is Rattus norvegicus. Put plainly: Relative inhibition of [3H]histamine release from pre-loaded slices of rat cerebral cortex. It counts as functional.
Assay [7] addresses Histamine H2 receptor (Cavia porcellus) (UniProt P47747). Put plainly: Evaluated for activity at Histamine H2 receptor in guinea pig ileum. The format is tissue-based.
The target of assay [8] is Histamine H1 receptor (Cavia porcellus) (UniProt P31389). Description: Evaluated for activity at Histamine H1 receptor in guinea pig ileum. It counts as tissue-based.
Assay [9] deals with T1, Histamine H3 receptor. Put plainly: Evaluated for antagonist activity against Histamine H3 receptor and represented as KB. It counts as functional.
For assay [10], the species on record is Rattus norvegicus. Description: Histamine level after treatment was determined for both agents (R-alpha-methylhistamine, thioperamide) in adbominal skin. It counts as functional.
The species named for assay [11] is Rattus norvegicus. Description: Histamine level after treatment was determined for both agents (R-alpha-methylhistamine, thioperamide) in cerebral cortex. The format is functional.
The species named for assay [12] is Rattus norvegicus. Put plainly: Histamine level after treatment was determined for both agents (R-alpha-methylhistamine, thioperamide) in hypothalamus. The format is functional.
For assay [13], the species on record is Rattus norvegicus. Put plainly: Histamine level after treatment was determined for both agents (R-alpha-methylhistamine, thioperamide) in lung. It counts as functional.
Assay [14] is filed under the species Rattus norvegicus. Description: Histamine level after treatment was determined for both agents (R-alpha-methylhistamine, thioperamide) in. It counts as functional.
The species named for assay [15] is Rattus norvegicus. Put plainly: Histamine level after treatment was determined for both agents (R-alpha-methylhistamine, thioperamide) in spleen. The format is functional.
In assay [16] the target is Histamine H2 receptor (Cavia porcellus) (UniProt P47747). Put plainly: Evaluated for activity against histamine H2 receptor in guinea pig atrium and represented as intrinsic activity. The conditions noted are these: Cardiac atrium.
Assay [17] has the same target. Put plainly: Evaluated for activity against histamine H2 receptor in guinea pig atrium and represented as alpha. It counts as tissue-based. Particulars: Cardiac atrium.
For assay [18], the target named is Histamine H3 receptor (Rattus norvegicus) (UniProt Q9QYN8). Put plainly: Evaluated for activity against H3 receptor and represented as %recovery histamine release at a concentration 5 x 10 E -6M.
Target sequence in this assay (Q9QYN8 whole entry, looked up): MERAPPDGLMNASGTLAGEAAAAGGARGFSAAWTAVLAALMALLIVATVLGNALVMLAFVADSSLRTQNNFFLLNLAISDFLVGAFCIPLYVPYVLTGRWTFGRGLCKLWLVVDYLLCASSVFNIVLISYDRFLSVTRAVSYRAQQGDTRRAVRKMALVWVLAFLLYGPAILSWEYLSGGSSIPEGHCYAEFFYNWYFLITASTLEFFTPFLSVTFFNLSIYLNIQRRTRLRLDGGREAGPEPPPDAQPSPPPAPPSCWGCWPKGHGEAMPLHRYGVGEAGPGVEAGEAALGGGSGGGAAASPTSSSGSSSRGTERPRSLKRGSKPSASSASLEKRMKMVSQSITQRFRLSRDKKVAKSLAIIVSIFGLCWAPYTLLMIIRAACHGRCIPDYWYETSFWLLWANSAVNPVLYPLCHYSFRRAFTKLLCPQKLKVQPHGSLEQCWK
The target of assay [19] is Histamine H2 receptor (Cavia porcellus) (UniProt P47747). Put plainly: Evaluated for activity against histamine H2 receptor in guinea pig gastric secretion and represented as alpha. The format is tissue-based. The conditions noted are these: Stomach.
The target is the same in assay [20]. Put plainly: Evaluated for activity against histamine H2 receptor in guinea pig gastric secretion and represented as pD2. It counts as tissue-based. Particulars: Stomach.
Assay [21] addresses T1, Histamine H3 receptor. Put plainly: Evaluated for antagonistic activity at histamine H3 receptor in rat cerebral cortex and is represented as Ki. The format is functional, tissue-based.
Assay [22] has as its target Histamine H2 receptor (Cavia porcellus) (UniProt P47747). Put plainly: Evaluated for antagonist activity against histamine H2 receptor and represented as KB. It counts as functional.
Assay [23] addresses Histamine H3 receptor (Rattus norvegicus) (UniProt Q9QYN8). Description: Evaluated for antagonist activity against histamine H3 receptor and represented as KB. It counts as functional.
Target sequence in this assay (Q9QYN8 whole entry): as the sequence (Q9QYN8 whole entry, looked up) above
For assay [24], the target named is Histamine H1 receptor (Cavia porcellus) (UniProt P31389). Description: Evaluated for antagonist activity against histamine H1 receptor and represented as KB. The format is functional.
Assay [25] has as its target Histamine H3 receptor (Rattus norvegicus) (UniProt Q9QYN8). Put plainly: Evaluated for antagonist activity against histamine H3 receptor and represented as KB. The format is functional.
Target sequence in this assay (Q9QYN8 whole entry): as the sequence (Q9QYN8 whole entry, looked up) above
Assay [26] has as its target T1, Histamine H3 receptor. Put plainly: Evaluated for antagonist activity against histamine H3 receptor and is represented as -log Ki. It counts as functional.
In assay [27] the target is Histamine H3 receptor (Rattus norvegicus) (UniProt Q9QYN8). Put plainly: Evaluated for activity against H3 receptor and represented as %recovery histamine release at a concentration 5 x 10 E -6M.
Target sequence in this assay (Q9QYN8 whole entry, looked up): as above
For assay [28], the species on record is Rattus norvegicus. Description: Histamine level after treatment was determined in adbominal skin. The format is functional.
The species entered for assay [29] is Rattus norvegicus. Put plainly: Histamine level after treatment was determined in cerebral cortex. The format is functional.
For assay [30], the species on record is Rattus norvegicus. Description: Histamine level after treatment was determined in spleen. It counts as functional.
Assay [31] is filed under the species Rattus norvegicus. Put plainly: Histamine level after treatment was determined in hypothalamus. The format is functional.
For assay [32], the species on record is Rattus norvegicus. Put plainly: Histamine level after treatment was determined in colon. The format is functional.

T1 sequence (Q9QYN8 whole entry): as the sequence (Q9QYN8 whole entry, looked up) above

For the compound `Cc1nc[nH]c1CSCCNC(=N)N[C@H](C)Cc1c[nH]cn1` [SOPROMIDINE], the inhibition constant (Ki) (in general, a dissociation constant, usually derived from enzyme kinetics or from competition with a known ligand) on Histamine H3 receptor [1] is 60 nM. The compound also displayed a Potency in assay [2] of 1.7. This compound gave a pD2 in assay [3] of 6.92. Further, the Activity was determined as 1 in assay [4] and 0.2 in assay [5].
`Cn1cnc(CCN)c1` [N-METHYLHISTAMINE] had a Ratio_EC50 in the assay listed under Rattus norvegicus [6] of under 4. Further, the Activity is under 0.1 in [7] and under 0.01 in assay [8].
Compound `O=C(CCCc1ccccn1)NCCc1c[nH]cn1` showed an inhibition constant (Ki) at Histamine H3 receptor [9] of 1000 nM.
Regarding `C[C@@H](N)Cc1c[nH]cn1.S=C(NC1CCCCC1)N1CCC(c2c[nH]cn2)CC1`, the Histamine level was 73 in the assay listed under Rattus norvegicus [10]; 196 in the assay filed under Rattus norvegicus [11]; 205 in the assay listed under Rattus norvegicus [12]; 143 in the assay listed under Rattus norvegicus [13]; 75 in the assay filed under Rattus norvegicus [14]; 96 in the assay filed under Rattus norvegicus [15].
In [16], `N=C(N)Nc1nc(CSCC/N=C(\N)NCCCc2c[nH]cn2)cs1` showed an intrinsic activity of 1. In [17], the Activity was 1. In [18], this compound registered a Release of 100%. Moreover, the pD2 in assay [19] came to 8.2; in assay [20], 7.9.
As to `Cc1nc[nH]c1CSCCNC(N)=N[C@@H](C)Cc1cnc[nH]1`, the inhibition constant Ki on Histamine H3 receptor [21] came out at 40 nM.
Take `C/N=C(/NC#N)NCCSCc1csc(NC(=N)N)n1`: the figures for the antagonist equilibrium constant (KB) in [22] and in assay [23] were 15 nM and over 12 µM, respectively.
Take `CN/C(=N\CCSCc1nc[nH]c1C)NC#N`: the KB (commonly the affinity of an antagonist, worked out from how it opposes an agonist) in assay [23] was determined as 33 µM.
With `CN(C)CCCSC(=N)N`, the Ratio_EC50 in the assay listed under Rattus norvegicus [6] is under 0.03. The Activity was 71 in assay [7] and under 0.0001 in assay [8].
`O=C(Cc1ccccc1)NCCc1c[nH]cn1` showed an inhibition constant (Ki) on Histamine H3 receptor [9] of 1000 nM.
Regarding `COc1ccc(CN(CCN(C)C)c2ccccn2)cc1`, the antagonist equilibrium constant (KB) was 440 pM in [24] and over 58 nM in [25].
On to `CNC(=S)NCCSCc1[nH]cnc1C`, for which the antagonist dissociation constant (KB) in [22] is 920 nM; in assay [23] it was 2.5 µM.
As to `O=C(CCCc1cnc[nH]1)NCCc1cnc[nH]1`, on Histamine H3 receptor [26], the affinity, expressed as Ki, was 1000 nM.
`CC(C)Cc1ccc(CSCC/N=C(\N)NCCCc2c[nH]cn2)o1` registered an intrinsic activity in [16] of 0.9. Besides, the Activity in [17] came to 0.9. Also, the pD2 in [19] turned out to be 8.5; in assay [20] it was 7.8. In assay [27], this compound displayed a Release of 100%.
In the assay listed under Rattus norvegicus [6], `Cc1nc[nH]c1CCN` [4-METHYLHISTAMINE] displayed a Ratio_EC50 of under 0.008. For the same compound, the results for the Activity in assay [7] and in assay [8] were 43 and 0.23, respectively.
On to `C[C@@H](N)Cc1c[nH]cn1`, for which the Histamine level in the assay listed under Rattus norvegicus [28] was determined as 65; in the assay listed under Rattus norvegicus [29] it was 68; in the assay listed under Rattus norvegicus [30], 69; in the assay filed under Rattus norvegicus [31], 85; in the assay filed under Rattus norvegicus [32], 81. In addition, the Ratio_EC50 in the assay filed under Rattus norvegicus [6] was 1550. Further, the Activity in assay [7] worked out at 1.02; in assay [8], 0.49.
Take `O=C(CCc1ccccc1)NCCc1cnc[nH]1`: the affinity at Histamine H3 receptor [9], expressed as Ki, was 631 nM.
